ChEMBL document CHEMBL1148596, “Discovery of nonpeptidic small-molecule AP-1 inhibitors: lead hopping based on a three-dimensional pharmacophore model” (J Med Chem, 2006)

How the values were obtained:
[1] = target: T1, Transcription factor AP1 (Homo sapiens, UniProt P05412+P01100); assay: Inhibitory activity on AP1 DNA-binding at 1 mM; format: protein-complex assay
[2] = target: T1, Transcription factor AP1; assay: Inhibitory activity on AP1 DNA-binding at 500 uM; format: protein-complex assay
[3] = target: T2, Transcription factor AP1 (Homo sapiens, UniProt P01100+P05412); assay: (§1) Inhibitory activity on AP1 using ELISA based AP1 DNA binding; format: protein-complex assay
[4] = target: T2, Transcription factor AP1; assay: (§2) Inhibition of the expression of AP1-luciferase by TPA-stimulated NIH3T3 cells; format: cell-based
[5] = target: T1, Transcription factor AP1; assay: as §1; format: protein-complex assay
[6] = target: T1, Transcription factor AP1; assay: as §2; format: cell-based; details: nih3t3

T2 sequence (P05412 whole entry): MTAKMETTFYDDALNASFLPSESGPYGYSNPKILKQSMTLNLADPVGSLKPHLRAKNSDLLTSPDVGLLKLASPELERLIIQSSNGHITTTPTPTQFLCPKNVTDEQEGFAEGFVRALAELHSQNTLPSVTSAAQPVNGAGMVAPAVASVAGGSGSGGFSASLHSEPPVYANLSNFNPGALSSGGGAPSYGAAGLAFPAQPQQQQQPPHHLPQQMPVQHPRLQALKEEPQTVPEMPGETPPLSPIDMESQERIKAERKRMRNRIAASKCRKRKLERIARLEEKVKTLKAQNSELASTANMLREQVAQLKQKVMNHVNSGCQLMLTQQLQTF
T2 sequence (P01100 whole entry): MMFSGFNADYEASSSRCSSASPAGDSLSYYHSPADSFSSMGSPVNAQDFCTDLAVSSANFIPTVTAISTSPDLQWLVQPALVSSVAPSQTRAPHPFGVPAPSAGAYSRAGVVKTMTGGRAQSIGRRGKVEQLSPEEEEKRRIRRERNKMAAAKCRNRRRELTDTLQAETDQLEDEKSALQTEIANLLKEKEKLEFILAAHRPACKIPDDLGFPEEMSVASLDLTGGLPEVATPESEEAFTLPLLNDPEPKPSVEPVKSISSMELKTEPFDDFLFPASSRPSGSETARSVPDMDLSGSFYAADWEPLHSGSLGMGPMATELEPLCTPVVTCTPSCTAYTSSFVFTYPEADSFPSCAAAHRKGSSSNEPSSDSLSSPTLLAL
T1 sequence (P05412 whole entry): as the sequence (P05412 whole entry) above
T1 sequence (P01100 whole entry): as the sequence (P01100 whole entry) above

Structure (SMILES) | inhibition [1] [%] | inhibition [2] [%] | IC50 [3] [µM] | IC50 [4] [µM] | IC50 [5] [µM] | IC50 [6] [µM]
CCCOc1ccc(C(=O)c2ccc(OCC(C)C)c(CCC(=O)O)c2)cc1 | 42 | 25 | 930 |  |  | 
CCCOc1ccc(C(=O)c2ccc(OCC(C)C)cc2)cc1CCC(=O)O | 55 | 26 | 910 |  |  | 
CC(C)CC=C1CCC2(CC1)SC[C@@H](C(=O)O)N2C(=O)CCCC(C)C (stereo partly drawn) |  |  |  |  | 460 | 13.3
CC(C)COc1ccc(C(=O)c2ccc(OCC(C)C)cc2)cc1 |  | 3 |  |  |  | 
CC(C)COc1cccc(C(=O)c2ccc(OCC(C)C)c(CCC(=O)O)c2)c1 |  |  | 600 | 5.8 |  | 
CC(C)COc1ccc(C(=O)c2ccc(OCC(C)C)c(CCC(N)=O)c2)cc1 |  | 5 |  |  |  | 
CC(C)CCC=C1CCC2(CC1)SC[C@@H](C(=O)O)N2C(=O)CCC(C)C (stereo partly drawn) |  |  |  |  | 650 | 11.8
CC(C)COc1ccc(C(=O)c2ccc(OCc3ccccc3)cc2)cc1CCC(=O)O |  | 45 |  |  |  | 

Now from value to compound:

inhibition [1] [%] | inhibition [2] [%] | IC50 [3] [µM] | IC50 [4] [µM] | IC50 [5] [µM] | IC50 [6] [µM] | Structure (SMILES)
9 | 7 | > 2000 |  |  |  | CC(C)COc1ccc(C(=O)c2ccccc2)cc1CCC(=O)O
91 | 28 | 610 | 5 |  |  | CC(C)COc1ccc(C(=O)c2ccc(OCC(C)C)c(CCC(=O)O)c2)cc1
14 | 10 | > 2000 |  |  |  | CC(C)COc1ccc(C(=O)c2cccc(CCC(=O)O)c2)cc1
97 | 51 | 420 |  |  |  | CC(C)COc1ccc(C(=O)c2ccc(OCc3ccccc3)c(CCC(=O)O)c2)cc1
